# Results: US8816121B2, “GLP-1 receptor stabilizers and modulators” (Receptos, Inc., priority 2010, dated 2014)
# How the values were obtained:
# GLP-1R [1] = biological target: T1, GLP-1R (Homo sapiens, UniProt P43220); assay: GLP-1 PAM EC20 assay: dosing compound in the presence of fixed GLP-1 (9-36), direct cAMP response; assay type: cell-based; conditions: compound dose response in presence of EC20 GLP-1 (9-36); for EC50: GLP-1R CRE-bla CHO-K1 cells; for EC20 GLP-1 (9-36) PAM max cAMP: total cAMP from standard curve
# T1 construct: host or cells: CRE-bla CHO-K1
# T1 sequence (P43220 24-463): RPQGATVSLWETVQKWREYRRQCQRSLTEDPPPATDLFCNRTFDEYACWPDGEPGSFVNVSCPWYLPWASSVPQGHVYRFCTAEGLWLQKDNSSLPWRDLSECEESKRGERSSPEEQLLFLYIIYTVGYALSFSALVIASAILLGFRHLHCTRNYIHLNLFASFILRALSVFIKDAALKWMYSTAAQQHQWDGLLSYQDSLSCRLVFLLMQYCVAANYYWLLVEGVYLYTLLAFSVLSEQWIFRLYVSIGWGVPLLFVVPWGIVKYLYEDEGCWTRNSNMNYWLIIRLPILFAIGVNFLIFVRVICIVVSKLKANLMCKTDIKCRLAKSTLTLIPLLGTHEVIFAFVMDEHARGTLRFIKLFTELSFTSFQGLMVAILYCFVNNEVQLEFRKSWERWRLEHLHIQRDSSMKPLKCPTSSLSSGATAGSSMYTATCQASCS
# T1 sequence (P01275 100-127 partner limits assumed): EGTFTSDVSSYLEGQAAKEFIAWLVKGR
# Experimental: GLP-1 PAM EC20 Assay: Dosing Compound in the Presence of Fixed GLP-1 (9-36)-Direct cAMP Response
# GLP-1R CRE-bla CHO-K1 cells were seeded into 384-well white flat bottom plates at 10,000 cells/well/20 μL culture media (same culture media used for PAM shift assay) and incubated for 18 h at 37° C. in 5% CO2. Compound dose response curves (12-point) and a separate 30×EC20 GLP-1 (9-36) stock solution were generated in assay buffer (same assay buffer used for PAM shift assay) in presence of 1.5 mM IBMX and 12.5% DMSO. Cells were washed 1× with assay buffer prior to adding 3 μL of compound dose response curve and 0.5 μL EC20 GLP-1 (9-36) to 12 μL assay buffer and incubated for 30 min at 37° C. Direct detection of cAMP was carried out using DiscoveRx HitHunter cAMP kit according to manufacturer's instructions (substituting 5 μL Antibody portion with 2 μL) and luminescence was read using a SpectraMax M5 plate reader. Luminescence signal was converted to total cAMP using a cAMP standard curve and data was analyzed by non-linear regression to determine the EC50 values for cAMP dose response curves.
# GLP-1R [2] = assay: Size exclusion chromatography peak shift assay (stability induction on GLP-1R); assay type: binding; conditions: relative to apo protein and a positive control; effect on dimer stability
# From the text: Generation of GLP-1R Protein Used in the Stability Induction Assay
# A synthetic gene for a modified GLP-1R enhanced for expression in insect cells was created using overlap extension PCR to encode the amino acid sequence containing a signal peptide, N-terminal Flag (Sigma) epitope tag, mGLP-1R, GFP and a 10× histidine tag.
# This gene product was cloned into the insect cell transfer vector, pFastBac 1 (Invitrogen) for transposition into the baculovirus DNA hosted in the DH10Bac strain E. coli. […] High titer viral stock of the recombinant GLP-1R baculovirus was recovered and used to infect a healthy population of SF9 insect cells for expression under the control of the ^ie1GP64 baculovirus promoter (EMD biosciences).
# Recombinant protein was isolated from the membranes of the insect cells by extraction using 1% β-dodecylmaltopyranoside followed by purification using immobilized metal affinity chromatography resin and standard protocols After elution the protein was analyzed by analytical size exclusion chromatography to determine its retention time relative to an unliganded receptor.
# Size Exclusion Chromatography Peak Shift Assay—Characterization of Stability Induction for Compounds
# The protein's hydrodynamic radius was analyzed on an analytical size exclusion chromatography column (Sepax Zenix SEC-300 250 mm×4.6 mm column) equilibrated with 20 mM Hepes pH 7.5, 500 mM NaCl, 2% v/v glycerol, 0.05% w/v DDM and 0.01% w/v CHS and attached to a Dionex Ultimate HPLC which continuously pumped running buffer at a flow rate of 0.5 mL/min. The HPLC was equipped with an ultraviolet absorption and a fluorescence detector which enabled detection of total protein absorbance and GFP fluorescent emission respectively. The peak profiles of the GLP-1R in the presence of multiple compounds could be determined from impure mixtures using fluorescence detection.
# Each tested compound was assayed for its ability to alter the hydrodynamic radius. This change can manifest as either a positive or negative shift in retention time in the peak shift assay. A positive shift represents a decrease in apparent molecular weight of the complex, while a negative shift represents an increase in size. Compounds that result in a negative shift in retention time (i.e. increased size) may do so by destabilizing the receptor or by causing non-specific aggregation. Compounds that result in a positive shift in retention time (i.e. decreased size) may do so either by stabilizing the receptor in a more compact conformation or by disrupting the oligomeric state (e.g. Dimer→monomer transition).
# For this assay we reported the relative shift in retention time of each compound with respect to the apo protein (without ligand) and a positive control.
Structure (SMILES),EC50 (GLP-1R [1]) [µM],EC20 GLP-1 (9-36) PAM max cAMP (GLP-1R [1]) [nM],"PEAK SHIFT ASSAY (relative shift in retention time, normalized 0 to 5 positive, −5 to 0 negative) (GLP-1R [2])"
"CCCCCCCOc1ccc(C(=O)Oc2ccc(CC(NC(=O)c3ccc(OC)cc3)C(=O)O)cc2OC)cc1 (stereo not shown) [Compound 2, 3-(4-((4-(heptyloxy)benzoyl)oxy)-3-methoxyphenyl)-2-(4-methoxybenzamido)propanoic acid]",> 20,189,–
"CCCCCCCOc1ccc(C(=O)Oc2ccc(C[C@H](NC(=O)c3ccc(C(C)(C)C)cc3)C(=O)O)cc2)cc1 [Compound 57, (S)-2-(4-(tert-butyl)benzamido)-3-(4-((4-(heptyloxy)benzoyl)oxy)phenyl)propanoic acid]",3.67,237,–
COc1cc(CC(NC(=O)c2ccc(NC(=O)C3CCCC3)cc2)C(=O)O)ccc1OC(=O)c1ccccc1 (stereo not shown) [Compound 266],–,–,0.88
COc1cc(CC(NC(=O)c2ccc(NC(=O)C3CCCC3)cc2)C(=O)O)ccc1OC(=O)c1ccccc1OC(C)=O (stereo not shown) [Compound 267],–,–,0.25
COc1ccc(C(=O)Oc2ccc(CC(NC(=O)c3ccc(NC(=O)C4CCCC4)cc3)C(=O)O)cc2OC)cc1 (stereo not shown) [Compound 268],–,–,0.46
COc1cc(CC(NC(=O)c2ccc(NC(=O)C3CCCC3)cc2)C(=O)O)ccc1OC(=O)c1ccc(C#N)cc1 (stereo not shown) [Compound 269],–,–,0.34
COc1cc(CC(NC(=O)c2ccc(NC(=O)C3CCCC3)cc2)C(=O)O)ccc1OC(=O)c1ccccc1COC(=O)c1ccccc1 (stereo not shown) [Compound 270],–,–,0
CCCN(CCC)S(=O)(=O)c1ccc(C(=O)Oc2ccc(CC(NC(=O)c3ccc(NC(=O)C4CCCC4)cc3)C(=O)O)cc2OC)cc1 (stereo not shown) [Compound 271],–,–,0.52
COc1cc(CC(NC(=O)c2ccc(NC(=O)C3CCCC3)cc2)C(=O)O)ccc1OC(=O)c1ccc(NC(=O)C2CCCC2)cc1 (stereo not shown) [Compound 272],–,–,−1.15
"COc1cc(CC(NC(=O)c2ccc(NC(=O)C3CCCC3)cc2)C(=O)O)ccc1OC(=O)c1ccc(NC(C)=O)cc1 (stereo not shown) [Compound 274, 3-(4-((4-acetamidobenzoyl)oxy)-3-methoxyphenyl)-2-(4-(cyclopentanecarboxamido)benzamido)propanoic acid]",–,–,0.83
COc1cc(CC(NC(=O)c2ccc(NC(=O)C3CCCC3)cc2)C(=O)O)ccc1OC(=O)c1ccc(-c2ccccc2)cc1 (stereo not shown) [Compound 275],–,–,0

# More lines, main results first:
EC50 (GLP-1R [1]) [µM],EC20 GLP-1 (9-36) PAM max cAMP (GLP-1R [1]) [nM],Structure (SMILES),"PEAK SHIFT ASSAY (relative shift in retention time, normalized 0 to 5 positive, −5 to 0 negative) (GLP-1R [2])"
> 10,72,CCCCCCCOc1ccc(C(=O)Oc2ccc(C[C@H](NC(=O)c3ccc(OC)cc3)C(=O)O)cc2)cc1 [Compound 63],–
5.49,204,"CCCCCCCOc1ccc(C(=O)Oc2ccc(CC(NC(=O)c3ccc(NC(=O)COCc4ccccc4)cc3)C(=O)O)cc2OC)cc1 (stereo not shown) [Compound 103, 2-(4-(2-(benzyloxy)acetamido)benzamido)-3-(4-((4-(heptyloxy)benzoyl)oxy)-3-methoxyphenyl)propanoic acid]",–
4.05,174,"CCCCCCCOc1ccc(C(=O)Oc2ccc(CC(NC(=O)c3ccc(NC(=O)Cc4ccc(OC)cc4)cc3)C(=O)O)cc2OC)cc1 (stereo not shown) [Compound 120, 3-(4-((4-(heptyloxy)benzoyl)oxy)-3-methoxyphenyl)-2-(4-(2-(4-methoxyphenyl)acetamido)benzamido)propanoic acid]",–
6.31,98,"CCCCCCCOc1ccc(C(=O)Oc2ccc(C[C@H](NC(=O)c3ccc(NC(=O)Cc4ccc(OC)cc4)cc3)C(=O)O)cc2)cc1 [Compound 178, (S)-3-(4-((4-(heptyloxy)benzoyl)oxy)phenyl)-2-(4-(2-(4-methoxyphenyl)acetamido)benzamido)propanoic acid]",–
4.84,160,"CCCCCCCOc1ccc(C(=O)Oc2ccc(C[C@H](NC(=O)c3ccc(NC(=O)COCc4ccccc4)cc3)C(=O)O)cc2)cc1 [Compound 179, (S)-2-(4-(2-(benzyloxy)acetamido)benzamido)-3-(4-((4-(heptyloxy)benzoyl)oxy)phenyl)propanoic acid]",–
2.78,216,"CCCCCCCOc1ccc(C(=O)Oc2ccc([C@H](NC(=O)c3ccc(NC(=O)Cc4ccc(OC)cc4)cc3)C(=O)O)cc2)cc1 [Compound 263, (S)-2-(4-((4-(heptyloxy)benzoyl)oxy)phenyl)-2-(4-(2-(4-methoxyphenyl)acetamido)benzamido)acetic acid]",–
> 10,27,"CCCCCCCOc1ccc(C(=O)Oc2ccc(CC(NC(=O)c3ccc(NC(=O)C4CCCC4)cc3)C(=O)O)cc2OC)cc1 (stereo not shown) [Compound 273, 2-(4-(cyclopentanecarboxamido)benzamido)-3-(4-((4-(heptyloxy)benzoyl)oxy)-3-methoxyphenyl)propanoic acid]",0.69
